According to PubChem BioAssay (NCI):
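Method: 48-hour compound exposure of cells in 96-well plates, five concentrations, linear interpolation of endpoints. Here, GI50 denotes the concentration required for 50% inhibition of growth. TGI: concentration producing complete growth inhibition.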

Key:
Assay in all cases: NCI-60 cell line screen, 48 h
SK-MEL-5 melanoma = test system: SK-MEL-5 melanoma
SK-MEL-2 melanoma = test system: SK-MEL-2 melanoma
HCT-15 colon = test system: HCT-15 colon
CAKI-1 renal = test system: CAKI-1 renal
UACC-62 melanoma = test system: UACC-62 melanoma
UACC-257 melanoma = test system: UACC-257 melanoma
M14 melanoma = test system: M14 melanoma
SNB-75 CNS = test system: SNB-75 CNS
KM12 colon = test system: KM12 colon
SF-539 CNS = test system: SF-539 CNS

## COc1cc(C)c(N(C)C(=O)CN(C)C)cc1Nc1nc(Nc2cccc(F)c2C(N)=O)c2cc[nH]c2n1
SK-MEL-5 melanoma
  GI50: 13.3 µM
  TGI: > 25 µM
SK-MEL-2 melanoma
  GI50: > 25 µM
  TGI: > 25 µM
HCT-15 colon
  GI50: > 25 µM
  TGI: > 25 µM
CAKI-1 renal
  GI50: > 23.9 µM
  TGI: > 25 µM
UACC-62 melanoma
  GI50: > 25 µM
  TGI: > 25 µM
UACC-257 melanoma
  GI50: > 15.1 µM
  TGI: > 25 µM
M14 melanoma
  GI50: > 25 µM
  TGI: > 25 µM
SNB-75 CNS
  GI50: > 25 µM
  TGI: > 25 µM
KM12 colon
  GI50: > 25 µM
  TGI: > 25 µM
SF-539 CNS
  GI50: > 25 µM
  TGI: > 25 µM

## Cc1cc(C)c(S(=O)(=O)Oc2ccccc2[N+](=O)[O-])c(C)c1
SK-MEL-5 melanoma
  GI50: 2 µM
  TGI: 7.8 µM
SK-MEL-2 melanoma
  GI50: 3.41 µM
  TGI: > 100 µM
HCT-15 colon
  GI50: 1.37 µM
  TGI: > 100 µM
CAKI-1 renal
  GI50: 0.956 µM
  TGI: > 19.9 µM
UACC-62 melanoma
  GI50: 2.46 µM
  TGI: > 100 µM
UACC-257 melanoma
  GI50: 4.22 µM
  TGI: > 100 µM
M14 melanoma
  GI50: 0.976 µM
  TGI: > 26.6 µM
SNB-75 CNS
  GI50: 1.82 µM
  TGI: 7.04 µM
KM12 colon
  GI50: 0.803 µM
  TGI: > 100 µM
SF-539 CNS
  GI50: 2.16 µM
  TGI: > 23.1 µM

## COc1cccc2c1C(=O)c1c(O)c3c(c(O)c1C2=O)C[C@@](O)(C(=O)COC(=O)c1cccnc1)C[C@@H]3OC1CC(N)C(O)C(C)O1 (stereo not given in full)
SK-MEL-5 melanoma
  GI50: 0.118 µM
  TGI: 0.252 µM
SK-MEL-2 melanoma
  GI50: 0.232 µM
  TGI: 0.529 µM
HCT-15 colon
  GI50: 1.07 µM
  TGI: 16.8 µM
CAKI-1 renal
  GI50: 0.705 µM
  TGI: 6.25 µM
UACC-62 melanoma
  GI50: 0.103 µM
  TGI: 0.268 µM
UACC-257 melanoma
  GI50: 0.172 µM
  TGI: 0.557 µM
M14 melanoma
  GI50: 0.17 µM
  TGI: 1.06 µM
SNB-75 CNS
  GI50: 0.084 µM
  TGI: 0.534 µM
KM12 colon
  GI50: 0.284 µM
  TGI: 8.44 µM
SF-539 CNS
  GI50: 0.0744 µM
  TGI: 0.673 µM

## S=C1SC2(CCCCCC2)NC2=C1CCCCC2
SK-MEL-5 melanoma
  TGI: 43.2 µM
SK-MEL-2 melanoma
  TGI: 47.4 µM
HCT-15 colon
  TGI: > 100 µM
CAKI-1 renal
  TGI: > 100 µM
UACC-62 melanoma
  TGI: > 100 µM
UACC-257 melanoma
  TGI: 67.1 µM
M14 melanoma
  TGI: > 100 µM
SNB-75 CNS
  TGI: 81.8 µM
KM12 colon
  TGI: > 100 µM
SF-539 CNS
  TGI: > 100 µM

## Cc1ccc(S(=O)(=O)NC(C)C(=O)O)cc1 (stereo not given)
SK-MEL-5 melanoma
  TGI: > 100 µM
SK-MEL-2 melanoma
  TGI: > 100 µM
HCT-15 colon
  TGI: > 100 µM
CAKI-1 renal
  TGI: > 100 µM
UACC-62 melanoma
  TGI: > 100 µM
UACC-257 melanoma
  TGI: > 100 µM
M14 melanoma
  TGI: > 100 µM
SNB-75 CNS
  TGI: > 100 µM
KM12 colon
  TGI: > 100 µM
SF-539 CNS
  TGI: > 100 µM

## [O-]c1c(-c2ccccc2)[se]c(-c2ccccc2)[n+]1-c1ccccc1
SK-MEL-5 melanoma
  TGI: 26.5 µM
SK-MEL-2 melanoma
  TGI: 19.8 µM
HCT-15 colon
  TGI: 31.2 µM
CAKI-1 renal
  TGI: 34.1 µM
UACC-62 melanoma
  TGI: 27.5 µM
UACC-257 melanoma
  TGI: 25.3 µM
M14 melanoma
  TGI: 17.6 µM
SNB-75 CNS
  TGI: 22 µM
KM12 colon
  TGI: 23.1 µM
SF-539 CNS
  TGI: 4.35 µM

## c1ccc(CN2CCC3(CC2)ONC2=NCCN23)cc1
SK-MEL-5 melanoma
  GI50: 72 µM
  TGI: > 100 µM
SK-MEL-2 melanoma
  GI50: > 100 µM
  TGI: > 100 µM
HCT-15 colon
  GI50: 46.8 µM
  TGI: > 100 µM
CAKI-1 renal
  GI50: 30.5 µM
  TGI: > 100 µM
UACC-62 melanoma
  GI50: 70.8 µM
  TGI: > 100 µM
UACC-257 melanoma
  GI50: > 100 µM
  TGI: > 100 µM
M14 melanoma
  GI50: > 100 µM
  TGI: > 100 µM
SNB-75 CNS
  GI50: > 100 µM
  TGI: > 100 µM
KM12 colon
  GI50: 58.5 µM
  TGI: > 100 µM
SF-539 CNS
  GI50: 96.3 µM
  TGI: > 100 µM

## COC(=O)/C=C\C1C(C(=O)OC)C2(C(=O)OC)CCC1(C(=O)OC)N2 (stereo not given)
SK-MEL-5 melanoma
  TGI: 34.1 µM
SK-MEL-2 melanoma
  TGI: 30 µM
HCT-15 colon
  TGI: 11.2 µM
CAKI-1 renal
  TGI: 6.82 µM
UACC-62 melanoma
  TGI: 29.8 µM
UACC-257 melanoma
  TGI: 19.2 µM
M14 melanoma
  TGI: 28.8 µM
SNB-75 CNS
  TGI: 32.9 µM
KM12 colon
  TGI: 36.7 µM
SF-539 CNS
  TGI: 32 µM
